Experimental data: US20040253262A1, “Biological compositions and methods for treatment of lymphoma” (priority 2003, published 2004)

Columns and labels:
Burkitt's lymphoma cells = experiment: Athymic nude mouse model with transplanted Burkitt's lymphoma cells, survival after treatment; format: in vivo; conditions: 36 at start
Method: A model based on transplantation of Burkitt's lymphoma cell in athymic nude mice was used (Gurtsevitch et al., 1988, Int J Cancer 15;41(1):87-95). The model was set up as described in Shiyan Dongwu Yu Zhongliu Yanjiu (Experimental Animal & Tumor Research), April 2000, by Chinese Medical Technology Publisher. Essentially, seven week old mice were injected intravenously each with 1×10^6 Burkitt's lymphoma cells.
Twenty-one days after the injection of lymphoma cells, the mice were divided into two series of five groups: one series received treatment for 30 days, the other series received treatment for 60 days. […] The mice in group A received saline orally. The mice in group B received subcutaneous injection of cyclophosphamide at a dose of 30 mg per kg body weight per day. Group C received subcutaneous injection of cyclophosphamide at a dose of 45 mg per kg body weight per day. The mice in group D received 0.3 ml of the oral composition per day. Group E received 0.5 ml of the oral composition per day.
After the 30-day or 60-day treatment, the mice were fed a normal diet and allowed to live under the same environment. The health and survival of the nude mice were observed and compared over 360 days.
Each group consisted of 36 mice at the beginning of the experiment (3 repeats). The total number of surviving mice in each group were counted at the end of every month up to 12 months after treatment stopped.

spontaneous lymphoma = experiment: Inbred PBA mouse model of lymphoma, survival after treatment; format: in vivo; conditions: 36 at start
Method: A model based on inbred PBA mice which manifest a high incidence of tumor was used (Bailey et al., 1970, J Natl. Cancer Inst. 45(1):59-73). Mice six to eight weeks old were treated by the method as described in Shiyan Dongwu Yu Zhongliu Yanjiu (Experimental Animal & Tumor Research), April 2000, by Chinese Medical Technology Publisher.
In the first series, the mice in group AY received 0.3 ml of the oral composition of the invention per day. The mice in group NY received 0.3 ml per day of a composition comprising at a similar concentration the same strain of yeast which had not been activated and conditioned. The mice in group CTX received subcutaneous injection of cyclophosphamide at a dose of 30 mg per kg body weight per day. […] The experiment was carried out over a 30-day treatment period.
In the second series, the mice in group 2AY received 0.5 ml of the oral composition of the invention per day. The mice in group 2NY received 0.5 ml per day of a composition comprising the same strain of yeast which had not been activated and conditioned at a similar concentration. The mice in group 2CTX received subcutaneous injection of cyclophosphamide at a dose of 45 mg per kg body weight per day. […] The experiment was carried out over a 60-day treatment period.
After the 30-day or 60-day treatment, the mice were fed a normal diet and allowed to live under the same environment. The health and survival of the mice were observed and compared over 180 days.
Each group consisted of 36 mice at the beginning of the experiment (3 repeats). The total number of surviving mice in each group were counted at the end of every month up to 6 months after treatment stopped.

O=P1(N(CCCl)CCCl)NCCCO1 (stereo not drawn) [cyclophosphamide]
total number of surviving mice (Burkitt's lymphoma cells; 30 mg/kg per day s.c. (group B), 30-day treatment, day 0 after treatment period): 36
total number of surviving mice (Burkitt's lymphoma cells; 30 mg/kg per day s.c. (group B), 30-day treatment, day 30 after treatment period): 33
total number of surviving mice (Burkitt's lymphoma cells; 30 mg/kg per day s.c. (group B), 30-day treatment, day 60 after treatment period): 24
total number of surviving mice (Burkitt's lymphoma cells; 30 mg/kg per day s.c. (group B), 30-day treatment, day 90 after treatment period): 14
total number of surviving mice (Burkitt's lymphoma cells; 30 mg/kg per day s.c. (group B), 30-day treatment, day 120 after treatment period): 5
total number of surviving mice (Burkitt's lymphoma cells; 30 mg/kg per day s.c. (group B), 30-day treatment, day 150 after treatment period): 3
total number of surviving mice (Burkitt's lymphoma cells; 30 mg/kg per day s.c. (group B), 30-day treatment, day 180 after treatment period): 1
total number of surviving mice (Burkitt's lymphoma cells; 30 mg/kg per day s.c. (group B), 30-day treatment, day 210 after treatment period): 0
total number of surviving mice (Burkitt's lymphoma cells; 30 mg/kg per day s.c. (group B), 30-day treatment, day 240 after treatment period): 0
total number of surviving mice (Burkitt's lymphoma cells; 30 mg/kg per day s.c. (group B), 30-day treatment, day 270 after treatment period): 0
total number of surviving mice (Burkitt's lymphoma cells; 30 mg/kg per day s.c. (group B), 30-day treatment, day 300 after treatment period): 0
total number of surviving mice (Burkitt's lymphoma cells; 30 mg/kg per day s.c. (group B), 30-day treatment, day 330 after treatment period): 0
total number of surviving mice (Burkitt's lymphoma cells; 30 mg/kg per day s.c. (group B), 30-day treatment, day 360 after treatment period): 0
total number of surviving mice (Burkitt's lymphoma cells; 30 mg/kg per day s.c. (group B), 60-day treatment, day 0 after treatment period): 35
total number of surviving mice (Burkitt's lymphoma cells; 30 mg/kg per day s.c. (group B), 60-day treatment, day 30 after treatment period): 35
total number of surviving mice (Burkitt's lymphoma cells; 30 mg/kg per day s.c. (group B), 60-day treatment, day 60 after treatment period): 33
total number of surviving mice (Burkitt's lymphoma cells; 30 mg/kg per day s.c. (group B), 60-day treatment, day 90 after treatment period): 24
total number of surviving mice (Burkitt's lymphoma cells; 30 mg/kg per day s.c. (group B), 60-day treatment, day 120 after treatment period): 19
total number of surviving mice (Burkitt's lymphoma cells; 30 mg/kg per day s.c. (group B), 60-day treatment, day 150 after treatment period): 9
total number of surviving mice (Burkitt's lymphoma cells; 30 mg/kg per day s.c. (group B), 60-day treatment, day 180 after treatment period): 5
total number of surviving mice (Burkitt's lymphoma cells; 30 mg/kg per day s.c. (group B), 60-day treatment, day 210 after treatment period): 2
total number of surviving mice (Burkitt's lymphoma cells; 30 mg/kg per day s.c. (group B), 60-day treatment, day 240 after treatment period): 0
total number of surviving mice (Burkitt's lymphoma cells; 30 mg/kg per day s.c. (group B), 60-day treatment, day 270 after treatment period): 0
total number of surviving mice (Burkitt's lymphoma cells; 30 mg/kg per day s.c. (group B), 60-day treatment, day 300 after treatment period): 0
total number of surviving mice (Burkitt's lymphoma cells; 30 mg/kg per day s.c. (group B), 60-day treatment, day 330 after treatment period): 0
total number of surviving mice (Burkitt's lymphoma cells; 30 mg/kg per day s.c. (group B), 60-day treatment, day 360 after treatment period): 0
total number of surviving mice (Burkitt's lymphoma cells; 45 mg/kg per day s.c. (group C), 30-day treatment, day 0 after treatment period): 35
total number of surviving mice (Burkitt's lymphoma cells; 45 mg/kg per day s.c. (group C), 30-day treatment, day 30 after treatment period): 35
total number of surviving mice (Burkitt's lymphoma cells; 45 mg/kg per day s.c. (group C), 30-day treatment, day 60 after treatment period): 27
total number of surviving mice (Burkitt's lymphoma cells; 45 mg/kg per day s.c. (group C), 30-day treatment, day 90 after treatment period): 21
total number of surviving mice (Burkitt's lymphoma cells; 45 mg/kg per day s.c. (group C), 30-day treatment, day 120 after treatment period): 17
total number of surviving mice (Burkitt's lymphoma cells; 45 mg/kg per day s.c. (group C), 30-day treatment, day 150 after treatment period): 11
total number of surviving mice (Burkitt's lymphoma cells; 45 mg/kg per day s.c. (group C), 30-day treatment, day 180 after treatment period): 4
total number of surviving mice (Burkitt's lymphoma cells; 45 mg/kg per day s.c. (group C), 30-day treatment, day 210 after treatment period): 2
total number of surviving mice (Burkitt's lymphoma cells; 45 mg/kg per day s.c. (group C), 30-day treatment, day 240 after treatment period): 1
total number of surviving mice (Burkitt's lymphoma cells; 45 mg/kg per day s.c. (group C), 30-day treatment, day 270 after treatment period): 0
total number of surviving mice (Burkitt's lymphoma cells; 45 mg/kg per day s.c. (group C), 30-day treatment, day 300 after treatment period): 0
total number of surviving mice (Burkitt's lymphoma cells; 45 mg/kg per day s.c. (group C), 30-day treatment, day 330 after treatment period): 0
total number of surviving mice (Burkitt's lymphoma cells; 45 mg/kg per day s.c. (group C), 30-day treatment, day 360 after treatment period): 0
total number of surviving mice (Burkitt's lymphoma cells; 45 mg/kg per day s.c. (group C), 60-day treatment, day 0 after treatment period): 34
total number of surviving mice (Burkitt's lymphoma cells; 45 mg/kg per day s.c. (group C), 60-day treatment, day 30 after treatment period): 34
total number of surviving mice (Burkitt's lymphoma cells; 45 mg/kg per day s.c. (group C), 60-day treatment, day 60 after treatment period): 34
total number of surviving mice (Burkitt's lymphoma cells; 45 mg/kg per day s.c. (group C), 60-day treatment, day 90 after treatment period): 27
total number of surviving mice (Burkitt's lymphoma cells; 45 mg/kg per day s.c. (group C), 60-day treatment, day 120 after treatment period): 19
total number of surviving mice (Burkitt's lymphoma cells; 45 mg/kg per day s.c. (group C), 60-day treatment, day 150 after treatment period): 12
total number of surviving mice (Burkitt's lymphoma cells; 45 mg/kg per day s.c. (group C), 60-day treatment, day 180 after treatment period): 7
total number of surviving mice (Burkitt's lymphoma cells; 45 mg/kg per day s.c. (group C), 60-day treatment, day 210 after treatment period): 3
total number of surviving mice (Burkitt's lymphoma cells; 45 mg/kg per day s.c. (group C), 60-day treatment, day 240 after treatment period): 0
total number of surviving mice (Burkitt's lymphoma cells; 45 mg/kg per day s.c. (group C), 60-day treatment, day 270 after treatment period): 0
total number of surviving mice (Burkitt's lymphoma cells; 45 mg/kg per day s.c. (group C), 60-day treatment, day 300 after treatment period): 0
total number of surviving mice (Burkitt's lymphoma cells; 45 mg/kg per day s.c. (group C), 60-day treatment, day 330 after treatment period): 0
total number of surviving mice (Burkitt's lymphoma cells; 45 mg/kg per day s.c. (group C), 60-day treatment, day 360 after treatment period): 0
total number of surviving mice (spontaneous lymphoma; 30 mg/kg per day per table head (45 mg/kg elsewhere in the source) s.c., 60-day treatment (group 2CTX), day 0 after treatment period): 36
total number of surviving mice (spontaneous lymphoma; 30 mg/kg per day per table head (45 mg/kg elsewhere in the source) s.c., 60-day treatment (group 2CTX), day 30 after treatment period): 36
total number of surviving mice (spontaneous lymphoma; 30 mg/kg per day per table head (45 mg/kg elsewhere in the source) s.c., 60-day treatment (group 2CTX), day 60 after treatment period): 29
total number of surviving mice (spontaneous lymphoma; 30 mg/kg per day per table head (45 mg/kg elsewhere in the source) s.c., 60-day treatment (group 2CTX), day 90 after treatment period): 21
total number of surviving mice (spontaneous lymphoma; 30 mg/kg per day per table head (45 mg/kg elsewhere in the source) s.c., 60-day treatment (group 2CTX), day 120 after treatment period): 14
total number of surviving mice (spontaneous lymphoma; 30 mg/kg per day per table head (45 mg/kg elsewhere in the source) s.c., 60-day treatment (group 2CTX), day 150 after treatment period): 14
total number of surviving mice (spontaneous lymphoma; 30 mg/kg per day per table head (45 mg/kg elsewhere in the source) s.c., 60-day treatment (group 2CTX), day 180 after treatment period): 8
total number of surviving mice (spontaneous lymphoma; 30 mg/kg per day s.c., 30-day treatment, day 0 after treatment period): 36
total number of surviving mice (spontaneous lymphoma; 30 mg/kg per day s.c., 30-day treatment, day 30 after treatment period): 33
total number of surviving mice (spontaneous lymphoma; 30 mg/kg per day s.c., 30-day treatment, day 60 after treatment period): 27
total number of surviving mice (spontaneous lymphoma; 30 mg/kg per day s.c., 30-day treatment, day 90 after treatment period): 19
total number of surviving mice (spontaneous lymphoma; 30 mg/kg per day s.c., 30-day treatment, day 120 after treatment period): 17
total number of surviving mice (spontaneous lymphoma; 30 mg/kg per day s.c., 30-day treatment, day 150 after treatment period): 0
total number of surviving mice (spontaneous lymphoma; 30 mg/kg per day s.c., 30-day treatment, day 180 after treatment period): 0
